Reference: patent US6284758A, “Angiogenesis promoters and angiogenesis potentiators” (priority 1997, dated 2001)

Legend:
[1] = test system: rat sponge model (angiogenesis); test: Relationship between dose and angiogenesis promotion by compound A in rat sponge model; type: in vivo; conditions: for Hemoglobin amount in sponge vs vehicle (in words): 7 times in total, Dunnett test
Description: (§1) The test animal models were prepared in the same manner as in Experimental Example 1.
As a reagent, compound A (4-bromo-6-[3-(4-chlorophenyl)-propoxy]-5-(3-pyridylmethylamino)-3-(2H)-pyridazinone hydrochloride, 35 mg) produced by a conventional method was suspended in 0.5% methylcellulose solution (70 ml) in a mortar and used as a 5 mg/kg administration reagent.
This suspension was diluted two-fold and 5-fold with a vehicle (0.5% methylcellulose solution) to give 2.5 mg/kg administration reagent and 1 mg/kg administration reagent (respective dose 10 ml/kg). The vehicle (0.5% methylcellulose solution) was used as a control. The vehicle was obtained by dissolving methylcellulose (5 g, manufactured by Kishida Chemical Industries, Ltd.) in distilled water (1000 ml).
Each reagent (compound A) and the vehicle were orally administered repeatedly (7 times in total) from the day of sponge embedding at a dose of 10 ml/kg twice a day for 4 days. The sponge was removed on the next day of the final administration, and hemoglobin in the sponge was calculated in the same manner as Experimental in Example 1.
Each group contained […] animals and the obtained data were expressed in mean±standard error. For the evaluation of the angiogenic effect, a Dunnett test was performed using the vehicle administration group as a control to examine significant difference. The significance was ascribed at less than 5% risk rate.

[2] = test system: rat sponge model (angiogenesis); test: Angiogenesis promotion by compound A in rat sponge model (embedded gelatin sponge; hemoglobin in sponge and photograph); type: in vivo
Description: Rats were anesthetized by intraperitoneal administration of sodium pentobarbital (50 mg/kg), and the dorsal median line was incised for about 1 cm and an air pocket was made subcutaneously at about 2.5 cm toward the tail side with a Kocher clamp. A hemostatic gelatin sponge (Spongel®, 10 mm×10 mm×7 mm; manufactured by Yamanouchi Pharmaceutical Co., Ltd.) impregnated with physiological saline was embedded therein. The opening was sutured and antisepticized to give a test animal model.
As a reagent, compound A (4-bromo-6-[3-(4-chlorophenyl)-propoxy]-5-(3-pyridylmethylamino)-3-(2H)-pyridazinone hydrochloride, 100 mg) produced by a conventional method was suspended in 0.5% methylcellulose solution (100 ml) in a mortar and used.
As a control, a vehicle (0.5% methylcellulose solution) was used. The vehicle was obtained by dissolving methylcellulose (5 g, manufactured by Kishida Chemical Industries, Ltd.) in distilled water (1000 ml).
The reagent (compound A) and the vehicle were orally administered repeatedly from the day of sponge embedding at a dose of 10 ml/kg once a day for 4 days or 7 days. The administration was performed 30 minutes before anesthetizing the animal on the very day of embedding, and the sponge was removed on the next day of the final administration.
After 4 days or 7 days from the embedding, an excess amount of pentobarbitalwas intravenously injected to the animals for euthanasia. The back was opened, and the tissue surrounding the embedded sponge was removed and the surface of the sponge was photographed. The sponge was taken out and placed in a 0.1M aqueous ammonia (2 ml), which was stood for 4 hr to extract hemoglobin in the sponge. The extract (100 μl) was taken, and hemoglobin was quantitated using an assay kit (hemoglobin B-TESTWAKO; manufactured by Wako Pure Chemical Industries, Ltd.) and used as the index of angiogenesis. The amount of hemoglobin in the sponge was calculated by the following formula.
Amount of hemoglobin in sponge (mg/sponge)=hemoglobin (mg) in extract (100
μl)×20 (total extract 2 ml)
The obtained data were expressed in mean±standard error. For the evaluation of the angiogenic effect, an unpaired t-test was performed using the animals administered with the drug for 4 days or 7 days and respective vehicle groups as control to examine significant difference. The significance was ascribed at less than 5% risk rate.

[3] = Acute toxicity, oral, rat; conditions: in vivo, oral administration
[4] = Acute toxicity, oral, dog; conditions: in vivo, oral administration
[5] = Hypotensive action in rat; type: in vivo; conditions: 5 mg/kg, based on vasodilating action
[6] = test system: rat sponge model (angiogenic effect of b-FGF); test: Potentiation of angiogenic effect of b-FGF by compound A in rat sponge model (b-FGF 1 μg/sponge); type: in vivo; conditions: for Hemoglobin in sponge at 4 days after embedding: mean±standard error, number of animals 10
Description: as §1
As a reagent, compound A (4-bromo-6-[3-(4-chlorophenyl)-propoxy]-5-(3-pyridylmethylamino)-3-(2H)-pyridazinone hydrochloride, 50 mg) produced by a conventional method was suspended in 0.5% methylcellulose solution (100 ml) in a mortar and used.
The vehicle (0.5% methylcellulose solution) was obtained by dissolving methylcellulose (5 g, manufactured by Kishida Chemical Industries, Ltd.) in distilled water (1000 ml).
A 0.1% bovine serum albumin (BSA)-physiological saline solution was prepared by dissolving BSA (0.1 g, Sigma) in physiological saline (100 Ml).
A b-FGF solution was prepared by dissolving recombinant b-FGF (20 μg, manufactured by BTI) in 0.1% BSA-physiological saline solution (2 ml).
A hemostatic gelatin sponge was the same as that used in Experimental Example 1.
The test group was divided into 3 groups. A sponge wetted with 100 μl of 0.1% BSA-physiological saline solution was embedded in group 1. A sponge (1 μg b-FGF/sponge) wetted with b-FGF solution (100 μl) was embedded in group 2 and group 3.
The vehicle was orally administered to group 1 and group 2, and the reagent (compound A) was orally administered to group 3 repeatedly from the day of sponge embedding at the dose of 10 ml/kg twice a day for 4 days.
In every test group, the administration began from the evening (single administration) of the very day of embedding. The time of administration of the drug was around 9 a.m. for the first administration and around 7 p.m. for the second administration. In consideration of the effect of the drug, the drug was not administered on the very day of sponge removal (7 times of administration in total).
After 4 days from the embedding, an excess amount of pentobarbital was intravenously injected to the animals for euthanasia. The back was opened, and the tissue surrounding the embedded sponge was removed and the surface of the sponge was photographed. The sponge was taken out and hemoglobin in the sponge was calculated in the same manner as in Experimental Example 1.
The obtained data were expressed in mean±standard error. For the evaluation of the angiogenic effect, a multiple comparison test by Tukey method was performed to examine significant difference. The significance was ascribed at less than 5% risk rate.

rat and dog = test: Acute toxicity, oral, rat and dog (overall finding); type: in vivo; conditions: oral administration
[7] = day 4 and day 7, also seen with vehicle

| Compound | Hemoglobin amount in sponge vs vehicle (in words) ([1]; 2.5 mg/kg orally twice a day) | Hemoglobin amount in sponge vs vehicle (in words) ([1]; 5 mg/kg orally twice a day) | Effect at 5 mg/kg on hemoglobin amount, tendency (in words) ([1]; 5 mg/kg, postulated due to decrease in blood flow from hypotensive action) | Angiogenesis promotion effect at a dose substantially free from hypotensive action (in words) ([1]; rat) | Time course of amount of hemoglobin in sponge (in words) [2, 7] | Time course of neovascularized blood vessels on the sponge surface (in words) [2, 7] | Amount of hemoglobin in sponge vs vehicle (in words) ([2]; day 7 of the test) | Observation of photograph: neovascularized blood vessels on the sponge surface ([2]; day 7 of the test, vs vehicle administration group) | Hemoglobin in sponge, 4 days after embedding ([2]; oral, 10 ml/kg (100 mg/100 ml suspension) once a day for 4 days, mean±standard error, number of animals 10, vehicle 6.216 ± 0.903) [mg/sponge] | Hemoglobin in sponge, 7 days after embedding ([2]; oral, 10 ml/kg (100 mg/100 ml suspension) once a day for 7 days, mean±standard error, number of animals 9, vehicle 9.585 ± 0.774, **p < 0.01 relative to vehicle, unpaired t-test) [mg/sponge] | LD50 [3] [mg/kg] | LD50 [4] [mg/kg] | Hypotensive action [5] | Observation of photograph: neovascularized blood vessels ([6]; day 4, group 3 (b-FGF and compound A, 5 mg/kg, co-administration) vs group 2 (b-FGF alone)) | Hemoglobin content vs group 1 and group 2 (in words) ([6]; group 3 (b-FGF and compound A, 5 mg/kg, co-administration), day 4) | Hemoglobin in sponge at 4 days after embedding ([6]; group 3: compound A 5 mg/kg orally twice a day (7 times in total) plus b-FGF (1 μg/sponge) in sponge, p < 0.01 relative to group 1 and group 2 (Tukey method)) [mg/sponge] | Toxicity (in words) (rat and dog) | Observation of photograph: neovascularized blood vessels ([6]; day 4, group 2 (b-FGF single administration) vs group 1 (BSA-physiological saline)) | Hemoglobin in sponge at 4 days after embedding ([6]; group 2: b-FGF (1 μg/sponge) in sponge, vehicle orally, group 1 (BSA-saline) 5.503 ± 0.562) [mg/sponge] |
| --- | --- | --- | --- | --- | --- | --- | --- | --- | --- | --- | --- | --- | --- | --- | --- | --- | --- | --- | --- |
| Cl.O=c1[nH]nc(OCCCc2ccc(Cl)cc2)c(NCc2cccnc2)c1Br [compound A, 4-bromo-6-[3-(4-chlorophenyl)-propoxy]-5-(3-pyridylmethylamino)-3-(2H)-pyridazinone hydrochloride] | showed a significant increase in hemoglobin amount | showed a significant increase in hemoglobin amount | the effect tended to weaken somewhat, though a significant difference was found | superior angiogenesis promotion effect at a dose substantially free from hypotensive action | showed an increase in the amount of hemoglobin in sponge at day 4 and day 7 of the test, in proportion to the number of days lapsed | showed an increase of neovascularized blood vessels on the sponge surface at day 4 and day 7 of the test in proportion to the number of days lapsed | showed a significant increase as compared to the vehicle administration group | showed more neovascularized blood vessels than in the vehicle administration group | 6.255 ± 0.807 | 16.351 ± 1.836 | ≥ 2000 | ≥ 2000 | causes hypotensive action in rat | showed still more neovascularized blood vessels than in group 2 | showed a significant increase in hemoglobin content as compared to group 1 (0.1% BSA-physiological saline solution group) and group 2 (b-FGF single administration group) | 14.995 ± 2.307 | extremely low toxic |  |  |
| b-FGF: recombinant b-FGF (20 μg, manufactured by BTI); basic fibroblast growth factor |  |  |  |  |  |  |  |  |  |  |  |  |  |  |  |  |  | visually showed more neovascularized blood vessels than in group 1 | 7.285 |
